Several values for one entry are separate records, joined by “and”; a condition that tells them apart may be missing. Equal values may be shown once. Entries after “also recorded” stand apart in the source; their conditions may differ.
Assays:
[1] = system: Human Pancreatic Adenocarcinoma Cells (HPAC); test: HPAC cell viability / anti-cell proliferative assay (Calbiochem Rapid Cell Proliferation Kit, OD 450 nm); type: cell-based; settings: 48 hours; for Optical Densities in 96_Well Plate, Average: average of 5 wells; for Optical Densities in 96_Well Plate, single well: one of 5 replicate wells
Description: Human Pancreatic Adenocarcinoma Cells (HPAC) cells were obtained from ATCC and propagated in Dulbecco's modified Eagle's medium and Ham's F12 medium (DME-F12) (1:1) containing 2.5 mM glutamine, […], 5 ug/mL transferrin, 1 ng/mL EGF (epidermal growth factor), plus 5% FBS (fetal bovine serum). Cell cultures were incubated at 37° C., 5% CO2 in a 100% humidity atmosphere. The cells were routinely brought to confluence in T-flasks, rinsed with phosphate buffered saline(PBS), and treated with trypsin for 5 min at room temp. The trypsinized cells were rinsed from the plate with 10 mL medium and counted. Viability at subculturing was generally ≧95%.
Approximately 10,000 cells in 100 uL of medium were placed in each well of a 96-well plate and incubated over night. Peptides having the following sequences were used: Arg-15-Cys (RSSCAGAALSPLGAC); Pro-15-Val (PNEEAGAALSPLPEV); Ala-8-Leu (AGALSPL); C-ANP 4-23 ([…]) and, VDL ([…]). The peptides were dissolved in PBS and sterile filtered. The peptides were diluted into the cell culture medium to the following final concentrations: 1, 0.3, 0.1, 0.03, and 0.01 uM. Each peptide was tested in 5 replicate wells. The cultures were incubated for an additional 48 hours at 37° C.
The viability of the cells was determined using a Calbiochem Rapid Cell Proliferation Kit (catalog number QIA127). Ten uL of Calbiochem color reagent was added to each well and incubated for an additional 1.5 hours at 37° C. Optical densities were read at 450 nm using a Molecular Devices ThermoMax microplate reader. The plate template is shown in Table I (unlabeled wells contained cells but no peptide and were used as blanks). Results are presented in Table I, and are graphically illustrated in FIGS. 1 and 2.

[2] = system: cancer cells; test: Anti-cancer activity of peptides with the conserved motif (cell proliferative assay); type: cell-based; settings: statement in the description
Excerpt: This example describes activity of peptides having a conserved motif and conserved amino acids predicted to be functional in the motif. (Table III). This example also describes additional exemplary peptide sequences having a conserved motif predicted to have activity (Table IV). Notations “Res 1, Res 2” etc., herein refer by single letter abbreviation the amino acid in the exemplary peptide 8-mer. “Activity” can be determined by a cell proliferative assay, such as an assay described herein or known to one of skill in the art. Of course, peptides exemplified in Table IV can include the conserved motif peptide as part of a larger protein. The SEQ ID NO is the same as the peptide number. Each of these exemplary peptides can be analyzed in vitro, ex vivo, and in vivo for anti-cell proliferative activity using an assay, such as a cell based in vitro assay described in Examples 1 or 4.

[3] = system: Human RPE cells (ARPE-19); test: Transepithelial electrical resistance (TEER) of RPE cell layer treated with VEGF; type: cell-based; settings: ARPE-19 cell layer, concurrent treatment with VEGF 10 ng/ml, ANP luM
[4] = system: cancer cells; settings: comparison between natriuretic peptides, Vesely 2008; cited from earlier work
[5] = target: T1, NPRC (Homo sapiens, UniProt P17342); settings: comparison between natriuretic peptides, Vesely 2008; cited from earlier work
T1 sequence (P17342 27-541): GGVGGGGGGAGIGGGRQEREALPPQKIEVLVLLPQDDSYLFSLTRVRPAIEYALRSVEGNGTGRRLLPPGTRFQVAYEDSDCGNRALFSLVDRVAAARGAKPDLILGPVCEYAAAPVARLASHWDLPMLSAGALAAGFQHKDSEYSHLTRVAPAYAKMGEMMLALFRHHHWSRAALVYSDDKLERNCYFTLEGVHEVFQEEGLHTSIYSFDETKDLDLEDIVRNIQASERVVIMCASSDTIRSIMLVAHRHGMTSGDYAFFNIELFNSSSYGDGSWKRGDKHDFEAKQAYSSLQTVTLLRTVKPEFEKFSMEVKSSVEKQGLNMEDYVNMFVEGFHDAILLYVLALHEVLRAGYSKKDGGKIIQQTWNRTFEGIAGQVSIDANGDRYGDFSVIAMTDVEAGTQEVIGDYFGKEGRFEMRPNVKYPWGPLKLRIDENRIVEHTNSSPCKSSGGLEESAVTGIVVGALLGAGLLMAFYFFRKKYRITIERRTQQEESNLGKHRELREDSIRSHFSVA

[6] = target: T2, NPRA (Homo sapiens, UniProt P16066); settings: comparison between natriuretic peptides, Vesely 2008; cited from earlier work
T2 sequence (P16066 33-1061): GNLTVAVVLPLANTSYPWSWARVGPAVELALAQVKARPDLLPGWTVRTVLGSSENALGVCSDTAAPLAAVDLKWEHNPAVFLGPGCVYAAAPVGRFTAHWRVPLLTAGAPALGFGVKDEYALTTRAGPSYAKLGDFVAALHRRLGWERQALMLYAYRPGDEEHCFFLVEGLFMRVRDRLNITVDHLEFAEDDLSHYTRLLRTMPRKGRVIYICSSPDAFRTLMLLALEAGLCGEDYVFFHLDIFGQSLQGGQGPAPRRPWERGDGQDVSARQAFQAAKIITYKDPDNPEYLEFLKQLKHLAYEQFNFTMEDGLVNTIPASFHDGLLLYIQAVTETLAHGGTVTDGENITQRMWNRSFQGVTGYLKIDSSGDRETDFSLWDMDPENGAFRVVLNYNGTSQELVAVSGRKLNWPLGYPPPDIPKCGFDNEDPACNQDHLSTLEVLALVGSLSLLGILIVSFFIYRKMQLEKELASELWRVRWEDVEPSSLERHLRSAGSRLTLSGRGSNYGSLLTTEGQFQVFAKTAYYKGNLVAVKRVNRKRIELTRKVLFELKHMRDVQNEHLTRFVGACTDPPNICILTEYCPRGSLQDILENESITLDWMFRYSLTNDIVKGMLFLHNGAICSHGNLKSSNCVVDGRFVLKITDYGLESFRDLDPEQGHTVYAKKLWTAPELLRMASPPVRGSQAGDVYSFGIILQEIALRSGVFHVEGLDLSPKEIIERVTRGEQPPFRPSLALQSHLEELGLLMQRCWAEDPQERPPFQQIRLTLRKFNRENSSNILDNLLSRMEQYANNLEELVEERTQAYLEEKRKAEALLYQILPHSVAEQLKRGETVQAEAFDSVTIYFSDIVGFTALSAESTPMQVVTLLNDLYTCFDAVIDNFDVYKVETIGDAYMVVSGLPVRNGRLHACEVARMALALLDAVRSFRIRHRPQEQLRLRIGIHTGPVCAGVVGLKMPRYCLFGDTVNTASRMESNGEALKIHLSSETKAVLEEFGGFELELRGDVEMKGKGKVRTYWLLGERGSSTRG

## ANP: atrial natriuretic peptide; Table III sequence SLRRSSCFGGRMDRIGAQSGLGCNSFRY [reference compound]
[1]; peptide 0.01 μM
  Optical Densities in 96_Well Plate, Average: 0.908
  Optical Densities in 96_Well Plate, single well: 0.981 and 0.815 and 0.822 and 0.965 and 0.955
[1]; peptide 0.03 μM
  Optical Densities in 96_Well Plate, Average: 0.935
  Optical Densities in 96_Well Plate, single well: 0.948 and 0.882 and 0.911 and 0.951 and 0.982
[1]; peptide 0.1 μM
  Optical Densities in 96_Well Plate, Average: 0.838
  Optical Densities in 96_Well Plate, single well: 0.884 and 0.889 and 0.907 and 0.862 and 0.650
[1]; peptide 0.3 μM
  Optical Densities in 96_Well Plate, Average: 0.974
  Optical Densities in 96_Well Plate, single well: 1.001 and 0.889 and 0.837 and 0.934 and 1.209
[1]; peptide 1.0 μM
  Optical Densities in 96_Well Plate, Average: 0.914
  Optical Densities in 96_Well Plate, single well: 1.018 and 0.819 and 0.954 and 0.829 and 0.951
[2]
  Activity of peptides sharing the conserved motif: have activity
[3]
  Effect on VEGF-induced decrease in trans-epithelial electrical resistance (TEER): attenuated the effect of VEGF; also recorded: This decrease is attenuated by ANP
[4]
  Relative potency of NPs: greater potency observed for ANP than CNP
[5]
  Relative binding affinity at NPRC: higher binding affinities at NPRA and NPRC
[6]
  Relative binding affinity at NPRA: higher binding affinities at NPRA and NPRC
